Data on three compounds can be found in patent publication US12312325B2, “Methods and compounds useful in the synthesis of an AAK1 inhibitor” (Lexicon Pharmaceuticals, Inc., priority 2022, dated 2025).

Counter-ions that a name gives are not always drawn.

In data set [1] the test system is PC12 cells. The conditions noted are these: treatment with the kinase inhibitor; cited from earlier work.
Data set [2] can be described thus: water solubility. The conditions noted are these: at 25° C. The data set is classed as physicochemical. As to the method: (§1) Instead, the melting of Form I is observed to recrystallize to another, metastable form having a melting point of about 172.5° C.
The nature of data set [3]: storage stability of the crystalline form. The conditions noted are these: stored at 40° C. and 75% relative humidity for up to four weeks. It counts as physicochemical. As to the method:
as §1

Turning to `COC(=O)[C@@]1(O)C[C@H]2O[C@]1(C)n1c3ccccc3c3c4c(c5c6ccccc6n2c5c31)C(=O)NC4` [Compound K252a, K252a], the “Neuregulin-1 induced neurite outgrowth” value in data set [1] is “potentiation of Neuregulin-1 induced neurite outgrowth”.
`CC(C)C[C@](C)(N)COc1ccc(-c2ccnc(C(F)F)c2)nc1C(F)F` [Compound K, ((S)-1-((2′,6-bis(difluoromethyl)-[2,4′-bipyridin]-5-yl)oxy)-2,4-dimethylpentan-2-aminiumdihydrogen phosphate]: the water solubility in data set [2] (listed as Form I) is listed as 26.8 mg/mL. Moreover, the “stability on storage (form, morphology, purity)” value in data set [3] is on record as “neither the form itself, its morphology, nor its purity changed”.
As for `CC(C)C[C@](C)(N)COc1ccc(-c2ccnc(C(F)F)c2)nc1C(F)F` [Compound S, (S)-1-((2′,6-bis(difluoromethyl)-[2,4′-bipyridin]-5-yl)oxy)-2,4-dimethylpentan-2-amine hydrochloride], the water solubility in data set [2] (listed as hydrochloride salt of Compound J, hydrochloride) was determined as 2.9 mg/mL.
